Values after ≈ are worked out from the molar mass of the structure shown. Read-outs that look alike come from different tables or passages of the source. A value given as a limit tells only on which side of the number the result lay.

What is called MIC is the least concentration at which growth counts as inhibited.

Format in all cases: cell-based
For assay [1], the system named is S. aureus ATCC 43300. Description: MIC test according to CLSI M7-A9, S. aureus ATCC 43300. Conditions: Staphylococcus aureus, ATCC43300; CLSI M7-A9, CAMHB, 24 h (Table 2); read-out: S. aureus ATCC 43300 MIC at 24 h. As for the experimental part:
(§1) MIC Test (S. aureus ATCC 29213, S. aureus ATCC 43300 and S. aureus Newman)
(§2) Susceptibility testing of S. aureus ATCC 29213, ATCC 43300 and Newman was performed according to Clinical Laboratory Standard Institute (CLSI) guidelines M7-A9. Test articles were stored at room temperature prior to use, then dissolved in filtered sterile DMSO. Stock DMSO solutions were diluted further in cation-adjusted Mueller Hinton broth (CAMHB) to provide appropriate test concentrations. Cultures of S. aureus (ATCC 29213, ATCC 43300 or Newman) were added in accordance with CLSI guidelines and plates incubated at 37° C. in air for 24 h. Endpoints were determined visually (and by spectrophotometer at 600 nm) and the minimum inhibitory concentration (MIC) defined as the lowest concentration of test articles resulting in complete inhibition of visible bacterial growth. Results are detailed in Table 2 (S. aureus ATCC 29213 and ATCC 43300) and Table 3 (S. aureus ATCC 29213, ATCC 43300 and Newman).

For assay [2], the system named is S. aureus ATCC 29213. The assay is described as follows: MIC test according to CLSI M7-A9, S. aureus ATCC 29213. Conditions: Staphylococcus aureus, ATCC29213, CLSI M7-A9, CAMHB. As for the experimental part:
as §1, §2

In assay [3] the test system is S. aureus Newman. Description: MIC test according to CLSI M7-A9, S. aureus Newman. Conditions: Staphylococcus aureus, CLSI M7-A9, CAMHB, 24 h (Table 3), read-out: S. aureus ATCC Newman MIC. The procedure:
as §1, §2

Where [4] appears, read: 24 h (Table 2), read-out: S. aureus ATCC 29213 MIC at 24 h.
Setting [5] is: 24 h (Table 3), read-out: S. aureus ATCC 29213 MIC.

As for `CC(C)(C)c1ccc(-c2nc(NCC(O)CNC3CCCCC3)n3[nH]c(=O)cc3n2)cc1` (centres unmarked) [Example 61, 2-(4-tert-butylphenyl)-4-{[3-(cyclohexylamino)-2-hydroxypropyl]amino}-6H,7H-pyrazolo[1,5-a][1,3,5]triazin-7-one], the MIC in assay [1] and in assay [2] (setting [4]) was 32 µg/mL (≈ 73 µM) each time.

For `Cc1cc(N2CCC(Nc3nc(-c4ccc(C(C)(C)C)cc4)nc4cc(=O)[nH]n34)CC2)ccc1Cl` [Example 62, 2-(4-tert-butylphenyl)-4-{[1-(4-chloro-3-methylphenyl)piperidin-4-yl]amino}-6H,7H-pyrazolo[1,5-a][1,3,5]triazin-7-one], the MIC worked out at 16 µg/mL (≈ 32.6 µM) in assay [1] and 4 µg/mL (≈ 8.15 µM) in assay [2] (setting [4]).

With `CC(C)(C)c1ccc(-c2nc(NC3CCN(C(=O)c4ccccc4)CC3)n3[nH]c(=O)cc3n2)cc1` [Example 63, 4-[(1-benzoylpiperidin-4-yl)amino]-2-(4-tert-butylphenyl)-6H,7H-pyrazolo[1,5-a][1,3,5]triazin-7-one], the minimal inhibitory concentration (MIC) was determined as 128 µg/mL (≈ 272 µM) in assay [1] and 32 µg/mL (≈ 68 µM) in assay [2] (setting [4]).

Take `CC(C)(C)c1ccc(-c2nc(NC3CCN(C(=O)c4nnc[nH]4)CC3)n3[nH]c(=O)cc3n2)cc1` [Example 64, 2-(4-tert-butylphenyl)-4-{[11-(4H-1,2,4-triazole-3-carbonyl)piperidin-4-yl]amino}-6H,7H-pyrazolo[1,5-a][1,3,5]triazin-7-one]: the figures for the MIC in assay [1] and in assay [2] (setting [4]) were > 128 µg/mL and 128 µg/mL (≈ 277 µM), respectively.

Regarding `Cc1cc(OCCC(C)Nc2nc(-c3ccc(C(C)(C)C)cc3)nc3cc(=O)[nH]n23)ccc1Cl` (centres unmarked) [Example 65, 2-(4-tert-butylphenyl)-4-{[4-(4-chloro-3-methylphenoxy)butan-2-yl]amino}-6H,7H-pyrazolo[1,5-a][1,3,5]triazin-7-one], the minimum inhibitory concentration (MIC) in assay [1] and in assay [2] (setting [4]) was 4 µg/mL (≈ 8.33 µM) throughout.

With `Cc1cc(NCC(F)CNc2nc(-c3ccc(C(C)(C)C)cc3)nc3cc(=O)[nH]n23)ccc1Cl` (centres unmarked) [Example 66, 2-(4-tert-butylphenyl)-4-({3-[(4-chloro-3-methylphenyl)amino]-2-fluoropropyl}amino)-6H,7H-pyrazolo[1,5-a][1,3,5]triazin-7-one], the results for the MIC in assay [1] and in assay [2] (setting [4]) were 2 µg/mL (≈ 4.14 µM) and 4 µg/mL (≈ 8.28 µM), respectively.

As for `Cc1ccc(-c2nc(NCCCOc3ccc(Cl)c(C)c3)n3[nH]c(=O)cc3n2)cc1` [Example 67, 4-{[3-(4-chloro-3-methylphenoxy)propyl]amino}-2-(4-methylphenyl)-6H,7H-pyrazolo[1,5-a][1,3,5]triazin-7-one], the MIC in assay [1] and in assay [2] (setting [4]) was > 64 µg/mL in each case.

As for `Cc1ccc(-c2nc(NC3CCN(Cc4ccccc4)CC3)n3[nH]c(=O)cc3n2)cc1` [Example 69, 4-[(1-benzylpiperidin-4-yl)amino]-2-(4-methylphenyl)-6H,7H-pyrazolo[1,5-a][1,3,5]triazin-7-one], the figures for the MIC in assay [1] and in assay [2] (setting [4]) were > 32 µg/mL and 32 µg/mL (≈ 77.2 µM), respectively.

Take `Cc1cc(OCCCNc2nc(-c3ccc(C(C)(C)C)cc3)nc3c(F)c(=O)[nH]n23)ccc1Cl` [Example 71, 2-(4-tert-butylphenyl)-4-{[3-(4-chloro-3-methylphenoxy)propyl]amino}-8-fluoro-6H,7H-pyrazolo[1,5-a][1,3,5]triazin-7-one]: the MIC in assay [1] and in assay [2] (setting [4]) was 8 µg/mL (≈ 16.5 µM) in each case.

For the compound `CC(C)(C)c1ccc(-c2nc(NCCCN3CCCc4ccccc43)n3[nH]c(=O)cc3n2)cc1` [Example 76, 2-(4-tert-butylphenyl)-4-{[3-(1,2,3,4-tetrahydroquinolin-1-yl)propyl]amino}-6H,7H-pyrazolo[1,5-a][1,3,5]triazin-7-one], the MIC in assay [2] (setting [5]) and in assay [3] was 4 µg/mL (≈ 8.76 µM) in each case.

On to `CC(C)(C)c1ccc(-c2nc(N3CCN(CCO)CC3)n3[nH]c(=O)cc3n2)cc1` [Example 77, 2-(4-tert-butylphenyl)-4-[4-(2-hydroxyethyl)piperazin-1-yl]-6H,7H-pyrazolo[1,5-a][1,3,5]triazin-7-one], for which the MIC in assay [2] (setting [5]) and in assay [3] was 64 µg/mL (≈ 161 µM) each time.

As to `CCCCN(CCCC)CCCNc1nc(-c2ccc(C(C)(C)C)cc2)nc2cc(=O)[nH]n12` [Example 78, 2-(4-tert-butylphenyl)-4-{[3-(dibutylamino)propyl]amino}-6H,7H-pyrazolo[1,5-a][1,3,5]triazin-7-one], the minimal inhibitory concentration (MIC) in assay [2] (setting [5]) and in assay [3] was 32 µg/mL (≈ 70.7 µM) in each case.

Consider `CC(C)(C)c1ccc(-c2nc(NCC3CN(Cc4ccccc4)CCO3)n3[nH]c(=O)cc3n2)cc1` (centres unmarked) [Example 79, 4-{[(4-benzylmorpholin-2-yl)methyl]amino}-2-(4-tert-butylphenyl)-6H,7H-pyrazolo[1,5-a][1,3,5]triazin-7-one], for which the figures for the MIC in assay [2] (setting [5]) and in assay [3] were 32 µg/mL (≈ 67.7 µM) and 16 µg/mL (≈ 33.9 µM), respectively.

On to `CC(C)(C)c1ccc(-c2nc(NCc3ccc(C#N)cc3)n3[nH]c(=O)cc3n2)cc1` [Example 84, 4-({[2-(4-tert-butylphenyl)-7-oxo-6H,7H-pyrazolo[1,5-a][1,3,5]triazin-4-yl]amino}methyl)benzonitrile], for which the MIC is 16 µg/mL (≈ 40.2 µM) in assay [2] (setting [5]) and 8 µg/mL (≈ 20.1 µM) in assay [3].

Turning to `Cc1cc(OCCCN(CCCN(C)C)c2nc(-c3ccc(C(C)(C)C)cc3)nc3cc(=O)[nH]n23)ccc1Cl` [Example 86, 2-(4-tert-butylphenyl)-4-{[3-(4-chloro-3-methylphenoxy)propyl][3-(dimethylamino)propyl]amino}-6H,7H-pyrazolo[1,5-a][1,3,5]triazin-7-one], the figures for the minimum inhibitory concentration (MIC) in assay [2] (setting [5]) and in assay [3] were 2 µg/mL (≈ 3.63 µM) and 1 µg/mL (≈ 1.81 µM), respectively.

As for `CC(C)(C)c1ccc(-c2nc(NCC(=O)NC3Cc4ccccc4C3)n3[nH]c(=O)cc3n2)cc1` [Example 88, 2-{[2-(4-tert-butylphenyl)-7-oxo-6H,7H-pyrazolo[1,5-a][1,3,5]triazin-4-yl]amino}-N-(2,3-dihydro-1H-inden-2-yl)acetamide], the minimal inhibitory concentration (MIC) in assay [2] (setting [5]) is > 128 µg/mL; in assay [3] it was 128 µg/mL (≈ 280 µM).

Regarding `CC(C)(C)c1ccc(-c2nc(NCC(F)(F)CNC3Cc4ccccc4C3)n3[nH]c(=O)cc3n2)cc1` [Example 89, 2-(4-tert-Butylphenyl)-4-({3-[(2,3-dihydro-1H-inden-2-yl)amino]-2,2-difluoropropyl}amino)-6H,7H-pyrazolo[1,5-a][1,3,5]triazin-7-one], the MIC in assay [2] (setting [5]) and in assay [3] was 8 µg/mL (≈ 16.2 µM) throughout.

`CC(C)(C)c1ccc(-c2nc(NCCCN3CCc4ccccc4C3)n3[nH]c(=O)cc3n2)cc1` [Example 91, 2-(4-tert-butylphenyl)-4-{[3-(1,2,3,4-tetrahydroisoquinolin-2-yl)propyl]amino}-6H,7H-pyrazolo[1,5-a][1,3,5]triazin-7-one]: the MIC in assay [2] (setting [5]) amounted to 32 µg/mL (≈ 70.1 µM); in assay [3], 16 µg/mL (≈ 35 µM).

Regarding `CC(C)(C)c1nc(NCCCNC2Cc3ccccc3C2)n2[nH]c(=O)cc2n1` [Example 95, 2-tert-butyl-4-({3-[(2,3-dihydro-1H-inden-2-yl)amino]propyl}amino)-6H,7H-pyrazolo[1,5-a][1,3,5]triazin-7-one], the results for the MIC in assay [2] (setting [5]) and in assay [3] were 16 µg/mL (≈ 42.1 µM) and 8 µg/mL (≈ 21 µM), respectively.

Regarding `CCCCNc1nc(C(C)(C)C)nc2cc(=O)[nH]n12` [Example 96, 2-tert-butyl-4-(butylamino)-6H,7H-pyrazolo[1,5-a][1,3,5]triazin-7-one], the MIC in assay [2] (setting [5]) was found to be 128 µg/mL (≈ 486 µM); in assay [3], 32 µg/mL (≈ 122 µM).

For `CC(C)(C)c1nc(NCCCN2CCc3ccccc3C2)n2[nH]c(=O)cc2n1` [Example 97, 2-tert-butyl-4-{[3-(1,2,3,4-tetrahydroisoquinolin-2-yl)propyl]amino}-6H,7H-pyrazolo[1,5-a][1,3,5]triazin-7-one], the values for the MIC in assay [2] (setting [5]) and in assay [3] were 128 µg/mL (≈ 336 µM) and 64 µg/mL (≈ 168 µM), respectively.

Consider `CN(CCCNc1nc(-c2ccc(C(C)(C)C)cc2)nc2cc(=O)[nH]n12)Cc1ccccc1` [Example 98, 4-({3-[benzyl(methyl)amino]propyl}amino)-2-(4-tert-butylphenyl)-6H,7H-pyrazolo[1,5-a][1,3,5]triazin-7-one], for which the MIC in assay [2] (setting [5]) and in assay [3] was 32 µg/mL (≈ 72 µM) in each case.

Take `O=c1cc2nc(C34CC5CC(CC(C5)C3)C4)nc(NCCCN3CCc4ccccc4C3)n2[nH]1` [Example 102, 2-(adamantan-1-yl)-4-{[3-(1,2,3,4-tetrahydroisoquinolin-2-yl)propyl]amino}-6H,7H-pyrazolo[1,5-a][1,3,5]triazin-7-one]: the minimum inhibitory concentration (MIC) was 64 µg/mL (≈ 140 µM) in assay [2] (setting [5]) and 16 µg/mL (≈ 34.9 µM) in assay [3].

Turning to `CC(C)(C)c1ccc(-c2nc(NCCCNC3Cc4ccccc4C3)n3[nH]c(=O)c(Cc4ccccc4)c3n2)cc1` [Example 108, 8-benzyl-2-(4-tert-butylphenyl)-4-({3-[(2,3-dihydro-1H-inden-2-yl)amino]propyl}amino)-6H,7H-pyrazolo[1,5-a][1,3,5]triazin-7-one], the results for the MIC in assay [2] (setting [5]) and in assay [3] were 0.5 µg/mL (≈ 0.915 µM) and 2 µg/mL (≈ 3.66 µM), respectively.

With `CC(C)(C)c1ccc(-c2nc(NCCCNC3Cc4ccccc4C3)n3[nH]c(=O)c(Cc4c[nH]cn4)c3n2)cc1` [Example 109, 2-(4-tert-butylphenyl)-4-({3-[(2,3-dihydro-1H-inden-2-yl)amino]propyl}amino)-8-(1H-imidazol-4-ylmethyl)-6H,7H-pyrazolo[1,5-a][1,3,5]triazin-7-one], the results for the minimum inhibitory concentration (MIC) in assay [2] (setting [5]) and in assay [3] were 4 µg/mL (≈ 7.45 µM) and 1 µg/mL (≈ 1.86 µM), respectively.

The values are drawn from patent US20180162862A1 (President and Fellows of Harvard College, priority 2015, published 2018).
